# Calls of active or inactive are those of the source. The rule behind the calls is not given here.
# Columns and labels:
# [1] = test system: Mycobacterium tuberculosis; assay: Antitubercular activity against Mycobacterium tuberculosis H37Rv (ATCC 25618) incubated for […] by MABA assay; format: functional
# [2] = molecular target: T1, Decaprenylphosphoryl-beta-D-ribose oxidase (Mycobacterium tuberculosis (strain ATCC 25618 / H37Rv)) (UniProt P9WJF1); assay: Time-dependent covalent inhibition of recombinant Mycobacterium tuberculosis DprE1 expressed in Escherichia coli by Amplex Red/peroxidase coupled assay
# T1 sequence (whole entry): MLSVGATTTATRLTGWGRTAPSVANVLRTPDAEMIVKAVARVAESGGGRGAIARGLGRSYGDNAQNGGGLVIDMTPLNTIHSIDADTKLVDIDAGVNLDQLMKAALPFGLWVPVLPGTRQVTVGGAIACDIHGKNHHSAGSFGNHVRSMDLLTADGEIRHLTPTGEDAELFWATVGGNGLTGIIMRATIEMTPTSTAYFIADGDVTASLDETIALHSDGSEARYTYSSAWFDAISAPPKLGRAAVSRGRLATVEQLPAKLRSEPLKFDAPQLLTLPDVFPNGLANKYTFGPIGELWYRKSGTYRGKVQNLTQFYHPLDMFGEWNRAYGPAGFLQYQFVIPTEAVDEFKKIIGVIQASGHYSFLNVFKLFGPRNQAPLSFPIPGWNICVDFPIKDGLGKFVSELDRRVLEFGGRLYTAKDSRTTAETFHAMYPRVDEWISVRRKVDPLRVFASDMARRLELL
# [3] = Metabolic stability in NADPH-fortified human liver microsomes assessed as CYP450-mediated stability incubated for 120 mins by LC/MS analysis; format: ADME, Microsome; settings: 2 h
# [4] = Metabolic stability in NADPH-fortified mouse liver microsomes assessed as CYP450-mediated stability incubated for 120 mins by LC/MS analysis; format: ADME, Microsome; settings: 2 h
# [5] = Tmax in ICR mouse at 25 micromol/kg, po measured after 24 hrs by LC-MS/MS analysis; format: ADME, organism-based; settings: in vivo, dose 25 µmol/kg
# [6] = Cmax in ICR mouse at 25 micromol/kg, po measured after 24 hrs by LC-MS/MS analysis; format: ADME, organism-based; settings: in vivo, dose 25 µmol/kg
# [7] = AUC (0 to 24 hrs) in ICR mouse at 25 micromol/kg, po by LC-MS/MS analysis; format: ADME, organism-based; settings: in vivo, dose 25 µmol/kg; for AUC: po
# [8] = Elimination half life in ICR mouse at 25 micromol/kg, po measured after 24 hrs by LC-MS/MS analysis; format: ADME, organism-based; settings: in vivo, dose 25 µmol/kg, read-out: beta t1/2 (converted)
# [9] = MRT in ICR mouse at 25 micromol/kg, po measured after 24 hrs by LC-MS/MS analysis; format: ADME, organism-based; settings: in vivo, dose 25 µmol/kg
# [10] = Oral bioavailability in ICR mouse at 25 micromol/kg measured after 24 hrs by LC-MS/MS analysis; format: ADME, organism-based; settings: in vivo; for F: po, 24 h, at 25 µmol/kg
# [11] = AUC (0 to 8 hrs) in ICR mouse at 5 micromol/kg, iv by LC-MS/MS analysis; format: ADME, organism-based; settings: in vivo, dose 5 µmol/kg; for AUC: iv
# [12] = Drug concentration in ICR mouse plasma at 5 micromol/kg, iv measured after 5 mins by LC-MS/MS analysis; format: ADME, organism-based; settings: dose 5 µmol/kg
# [13] = Elimination half life in ICR mouse at 5 micromol/kg, iv measured after 24 hrs by LC-MS/MS analysis; format: ADME, organism-based; settings: in vivo, dose 5 µmol/kg, read-out: beta t1/2 (converted)
# [14] = MRT in ICR mouse at 5 micromol/kg, iv measured after 24 hrs by LC-MS/MS analysis; format: ADME, organism-based; settings: in vivo, dose 5 µmol/kg
# [15] = Volume of distribution at steady state in ICR mouse at 5 micromol/kg, iv measured after 24 hrs by LC-MS/MS analysis; format: ADME, organism-based; settings: in vivo, dose 5 µmol/kg, read-out: Vdss
# [16] = Total plasma clearance in ICR mouse at 5 micromol/kg, iv measured after 24 hrs by LC-MS/MS analysis; format: ADME, organism-based; settings: dose 5 µmol/kg
# [17] = Protein binding in mouse plasma assessed as unbound fraction incubated for 24 hrs by equilibrium dialysis based LC/MS analysis; format: ADME, cell-free
# [18] = Aqueous solubility of the compound in PBS buffer at pH 6.82 incubated for 4 hrs by HPLC analysis; format: physicochemical
# [19] = molecular target: T2, Decaprenylphosphoryl-beta-D-ribose oxidase (Mycobacterium tuberculosis (strain ATCC 25618 / H37Rv), UniProt P9WJF1); assay: Inhibition of recombinant Mycobacterium tuberculosis DprE1 expressed in Escherichia coli measured after 120 mins by Amplex Red/peroxidase coupled assay
# T2 sequence (P9WJF1 whole entry): T1 sequence (whole entry)
# HepG2 = assay: Cytotoxicity against human HepG2 cells at 30 uM incubated for 48 hrs by CCK8 assay; format: toxicity, cell-based; settings: hepg2, 48 h
# [20] = test system: Mycobacterium tuberculosis; assay: Antitubercular activity against Mycobacterium tuberculosis H37Rv infected in BALB/c mouse assessed as log reduction in colony formation in lung at 50 mg/kg, po administered for 6 weeks; format: functional
# [21] = Cytotoxicity against mouse hepatic stellate cells at 30 uM incubated for 48 hrs by CCK8 assay; format: toxicity, cell-based; settings: hepatic stellate cell
smiles,measurement,setting,value
CN(Cc1cn(-c2ccccc2)nn1)c1nc(=O)c2cc(S(C)(=O)=O)cc([N+](=O)[O-])c2s1,MIC,[1],0.047 µM
CN(CC#CCN1CCCCC1)c1nc(=O)c2cc(C(F)(F)F)cc([N+](=O)[O-])c2s1,MIC,[1],0.127 µM
CN(C/C=C/C1CC1)c1nc(=O)c2cc(C(F)(F)F)cc([N+](=O)[O-])c2s1,MIC,[1],0.023 µM
CN(CC#CCN1CCOCC1)c1nc(=O)c2cc(C(F)(F)F)cc([N+](=O)[O-])c2s1,MIC,[1],0.106 µM
CN(CC#Cc1cccs1)c1nc(=O)c2cc(C(F)(F)F)cc([N+](=O)[O-])c2s1,MIC,[1],0.014 µM
same,TDI,[2],Active
same,Stability,[3],Stable
same,Stability,[4],Stable
CN(CC#CCN1CCS(=O)(=O)CC1)c1nc(=O)c2cc(C(F)(F)F)cc([N+](=O)[O-])c2s1,MIC,[1],0.867 µM
CN(C)Cc1ccc(C#CCN(C)c2nc(=O)c3cc(C(F)(F)F)cc([N+](=O)[O-])c3s2)cc1,MIC,[1],0.47 µM
CN(CC#Cc1ccc(F)cc1)c1nc(=O)c2cc(C(F)(F)F)cc([N+](=O)[O-])c2s1,MIC,[1],0.013 µM
CN(CC#CCN1CC[S+]([O-])CC1)c1nc(=O)c2cc(C(F)(F)F)cc([N+](=O)[O-])c2s1,MIC,[1],1.05 µM
CN(CC#CCN1CCCC1)c1nc(=O)c2cc(C(F)(F)F)cc([N+](=O)[O-])c2s1,MIC,[1],0.378 µM
COc1cccc(C#CCN(C)c2nc(=O)c3cc(C(F)(F)F)cc([N+](=O)[O-])c3s2)c1,MIC,[1],0.093 µM
CN(CC#Cc1ccsc1)c1nc(=O)c2cc(C(F)(F)F)cc([N+](=O)[O-])c2s1,MIC,[1],0.014 µM
same,Stability,[3],Stable
same,Stability,[4],Stable
CN(CC#Cc1cccc(C#N)c1)c1nc(=O)c2cc(C(F)(F)F)cc([N+](=O)[O-])c2s1,MIC,[1],0.029 µM
CN1CCC(O)(C#CCN(C)c2nc(=O)c3cc(C(F)(F)F)cc([N+](=O)[O-])c3s2)CC1,MIC,[1],16.9 µM
CN(CC#CC(O)CN1CCCCC1)c1nc(=O)c2cc(C(F)(F)F)cc([N+](=O)[O-])c2s1 (configuration not stated),MIC,[1],1.05 µM
CN(Cc1nnc(-c2ccccc2)o1)c1nc(=O)c2cc(S(C)(=O)=O)cc([N+](=O)[O-])c2s1,MIC,[1],0.03 µM
CN(C/C=C\c1ccccc1)c1nc(=O)c2cc(C(F)(F)F)cc([N+](=O)[O-])c2s1,MIC,[1],0.045 µM
same,TDI,[2],Active
O=c1nc(N2CCN(CC3CCCCC3)CC2)sc2c([N+](=O)[O-])cc(C(F)(F)F)cc12 [MACOZINONE],MIC,[1],< 0.0004 µM
same,Tmax,[5],0.38 h
same,Cmax,[6],472 nM
same,AUC,[7],0.80339 µM·h
same,half-life,[8],1.48 h
same,MRT,[9],2.44 h
same,F,[10],0.65%
same,AUC,[11],1.18766 µM·h
same,concentration at 5 min,[12],1390 nM
same,half-life,[13],0.95 h
same,MRT,[14],1.42 h
same,Vd,[15],5.61 L/kg
same,clearance,[16],65.5 mL/min/kg
same,Fu,[17],0.46%
same,solubility at 4 h,[18],0.01 µg/mL
CN(C/C=C/C1CCCC1)c1nc(=O)c2cc(C(F)(F)F)cc([N+](=O)[O-])c2s1,MIC,[1],0.002 µM
CN(CC#CCN1CCSCC1)c1nc(=O)c2cc(C(F)(F)F)cc([N+](=O)[O-])c2s1,MIC,[1],0.028 µM
CN(C/C=C/C1CCCCC1)c1nc(=O)c2cc(C(F)(F)F)cc([N+](=O)[O-])c2s1,MIC,[1],0.002 µM
CN(C/C=C\C1CCCC1)c1nc(=O)c2cc(C(F)(F)F)cc([N+](=O)[O-])c2s1,MIC,[1],0.01 µM
CN(C/C=C\C1CCCCC1)c1nc(=O)c2cc(C(F)(F)F)cc([N+](=O)[O-])c2s1,MIC,[1],0.009 µM
CN(CC#Cc1ccc(F)cc1F)c1nc(=O)c2cc(C(F)(F)F)cc([N+](=O)[O-])c2s1,MIC,[1],0.007 µM
CN(C/C=C/c1ccccc1)c1nc(=O)c2cc(C(F)(F)F)cc([N+](=O)[O-])c2s1,MIC,[1],0.024 µM
same,TDI,[2],Active
CN(CC#Cc1ccc2c(c1)OCO2)c1nc(=O)c2cc(C(F)(F)F)cc([N+](=O)[O-])c2s1,MIC,[1],0.145 µM
CN1CCN(CC#CCN(C)c2nc(=O)c3cc(C(F)(F)F)cc([N+](=O)[O-])c3s2)CC1,MIC,[1],1.92 µM
CN(CC#Cc1ccccc1)c1nc(=O)c2cc(C(F)(F)F)cc([N+](=O)[O-])c2s1,MIC,[1],0.007 µM
same,Tmax,[5],0.9 h
same,Cmax,[6],1290 nM
same,AUC(0-t),[7]; ICR,5.16 µM·h
same,half-life,[8],2.95 h
same,MRT,[9],4.35 h
same,bioavailability,"[10]; ICR, 25 µmol/kg",4.49%
same,AUC(0-t),[11]; ICR,23.2 µM·h
same,concentration at 5 min,[12],13500 nM
same,half-life,[13],1.77 h
same,MRT,[14],2.72 h
same,Vd,[15],0.25 L/kg
same,clearance,[16],1.5 mL/min/kg
same,Fu,[17],0.25%
same,IC50,[19],23 nM
same,solubility at 4 h,[18],0.8 µg/mL
same,Activity,HepG2,Non-Toxic
same,Activity,[20],<1 log10CFU
same,TDI,[2],Active
same,Stability,[3],Stable
same,Stability,[4],Stable
same,Activity,[21],Non-Toxic
CN(CC#CCN1CCSC1)c1nc(=O)c2cc(C(F)(F)F)cc([N+](=O)[O-])c2s1,MIC,[1],0.029 µM
CN(CC#Cc1cncs1)c1nc(=O)c2cc(C(F)(F)F)cc([N+](=O)[O-])c2s1,MIC,[1],0.129 µM
CN(C/C=C\C1CC1)c1nc(=O)c2cc(C(F)(F)F)cc([N+](=O)[O-])c2s1,MIC,[1],0.042 µM
CN(CC#CC1CCCC1)c1nc(=O)c2cc(C(F)(F)F)cc([N+](=O)[O-])c2s1,MIC,[1],0.005 µM
CN(CC#CCN1CC2(COC2)C1)c1nc(=O)c2cc(C(F)(F)F)cc([N+](=O)[O-])c2s1,MIC,[1],0.423 µM
CN(CC#CC(C)(C)C)c1nc(=O)c2cc(C(F)(F)F)cc([N+](=O)[O-])c2s1,MIC,[1],0.023 µM
CN(CC#CCc1ccccc1)c1nc(=O)c2cc(C(F)(F)F)cc([N+](=O)[O-])c2s1,MIC,[1],0.053 µM
same,TDI,[2],Active
CN(C)CCc1ccc(C#CCN(C)c2nc(=O)c3cc(C(F)(F)F)cc([N+](=O)[O-])c3s2)cc1,MIC,[1],1.01 µM
CN(CC#Cc1cnsc1)c1nc(=O)c2cc(C(F)(F)F)cc([N+](=O)[O-])c2s1,MIC,[1],0.03 µM
CN(CC#Cc1cscn1)c1nc(=O)c2cc(C(F)(F)F)cc([N+](=O)[O-])c2s1,MIC,[1],0.028 µM
same,Tmax,[5],1 h
same,Cmax,[6],2670 nM
same,AUC,[7],18.99661 µM·h
same,half-life,[8],4.77 h
same,MRT,[9],7.17 h
same,F,[10],37.13%
same,AUC,[11],4.66345 µM·h
same,concentration at 5 min,[12],10300 nM
same,half-life,[13],0.84 h
same,MRT,[14],1.05 h
same,Vd,[15],0.59 L/kg
same,clearance,[16],8.5 mL/min/kg
same,Fu,[17],0.65%
same,solubility at 4 h,[18],12.8 µg/mL
same,Activity,HepG2,Non-Toxic
same,Activity,[20],~2 log10CFU
same,Stability,[3],Stable
same,Stability,[4],Stable
same,Activity,[21],Non-Toxic
CN(CC#Cc1ccccc1F)c1nc(=O)c2cc(C(F)(F)F)cc([N+](=O)[O-])c2s1,MIC,[1],0.011 µM
CN(CC#Cc1ccc(F)c(F)c1)c1nc(=O)c2cc(C(F)(F)F)cc([N+](=O)[O-])c2s1,MIC,[1],0.013 µM
C#CCN(C)c1nc(=O)c2cc(C(F)(F)F)cc([N+](=O)[O-])c2s1,MIC,[1],1.4 µM
CN(CC#CC1CCCCC1)c1nc(=O)c2cc(C(F)(F)F)cc([N+](=O)[O-])c2s1,MIC,[1],0.002 µM
same,IC50,[19],18 nM
same,TDI,[2],Active
CN(CC#Cc1ccc2c(c1)OCCO2)c1nc(=O)c2cc(C(F)(F)F)cc([N+](=O)[O-])c2s1,MIC,[1],0.092 µM

# Source: ChEMBL document CHEMBL5528009, “Benzothiozinone derivatives with anti-tubercular Activity-Further side chain investigation” (Eur J Med Chem, 2024)
